Assay results from patent publication US12037324B2, “Biarylmethyl heterocycles” (Université de Montréal, priority 2016, dated 2024).

Experiments:
hAT1R [1] = target: T1, hAT1R (Homo sapiens, UniProt P30556); experiment: BRET β-arrestin2 biosensor assay, higher receptor expression (hAT1R 5 ng/well), HEK293 cells; assay type: cell-based; settings: for EC50: High AT1R Expression
T1 sequence (P30556 1-359): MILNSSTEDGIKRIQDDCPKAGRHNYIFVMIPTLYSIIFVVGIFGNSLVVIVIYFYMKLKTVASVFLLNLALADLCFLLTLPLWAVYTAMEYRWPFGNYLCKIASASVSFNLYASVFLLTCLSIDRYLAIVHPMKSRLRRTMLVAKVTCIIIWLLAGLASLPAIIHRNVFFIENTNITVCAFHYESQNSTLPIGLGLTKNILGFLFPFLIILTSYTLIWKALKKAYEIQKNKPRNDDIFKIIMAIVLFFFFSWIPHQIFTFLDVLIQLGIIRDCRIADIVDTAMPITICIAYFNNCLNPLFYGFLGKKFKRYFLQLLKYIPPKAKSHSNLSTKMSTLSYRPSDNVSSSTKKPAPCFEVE

hAT1R [2] = target: T1, hAT1R; experiment: cell-based
hAT1R [3] = target: T1, hAT1R; experiment: cell-based; settings: agonist mode; for EC50: read-out: BRET P63 EC50
AGTR1 [4] = target: T2, AGTR1 (Homo sapiens, UniProt P30556); experiment: DiscoveRx β-arrestin2 recruitment assay (enzyme complementation, Pathunter CHO-K1 AGTR1 β-arrestin cell line); assay type: cell-based; settings: DiscoveRx β-arrestin2 recruitment; for DiscoveRx β-arrestin2 Ymax (%): maximal response
T2 construct: host or cells: Pathunter CHO-K1 AGTR1 β-arrestin cell line (CHO-K1)
T2 sequence (P30556 1-359): T1 sequence (P30556 1-359)
Procedure, shortened: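 CHO-K1 cells expressing AGTR1 with β-arrestin2 enzyme-complementation reporter, plated 14-16 h ahead in 1% serum medium, then exposed to compounds for 90 min at 37° C. Chemiluminescence read after 1 h detection. EC50 (agonist) or IC50 (antagonist) from 4-parameter logistic fit; activity as percentage of All maximal effect.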

AGTR1 [5] = target: T2, AGTR1; experiment: DiscoveRx IP1 accumulation assay (HTRF), agonist mode, Pathunter CHO-K1 AGTR1 β-arrestin cell line; assay type: cell-based; settings: for EC50: read-out: IP-1 EC50
Procedure, shortened: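 Agonist mode in CHO-K1 AGTR1 β-arrestin cells plated 14-16 h before; compounds at varying concentrations for 90 min at 37° C, IP1 accumulation read by HTRF (D2-conjugate and anti-IP1 cryptate, 20 min room temperature). EC50 from 4-parameter logistic fit; activity given as percentage of maximal AII effect.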

[6] = Low AT1R Expression, read-out: BRET β-Arrestin2 Low AT1R Expression EC50
[7] = section of the 42nd table ending at r951, example numbering restarts after the DiscoveRx section, read-out: β-arrestin2 EC50

SMILES | BRET β-Arrestin2 High AT1R Expression Ymax (%) (hAT1R [1]) | EC50 (hAT1R [1]) [nM] | EC50 (hAT1R [2]; [6]) [nM] | EC50 (hAT1R [3]) [nM] | EC50 (AGTR1 [4]) [nM] | DiscoveRx β-arrestin2 Ymax (%) (AGTR1 [4]) | EC50 (AGTR1 [5]) [nM] | BRET β-Arrestin2 Low AT1R Expression Ymax (%) (hAT1R [2]; Low AT1R Expression) | IP-1 Ymax (%) (AGTR1 [5]) | BRET P63 Ymax (hAT1R [3]) [%] | EC50 (hAT1R [2]; [7]) [nM]
CCCC1=NC2(CCCC2)C(=O)N1Cc1ccc(-c2cc(N3CCC[C@@H](C)C3)ccc2-c2nn[nH]n2)cc1 [Example 117] | 35.0 | 94.2 | > 100000 | > 100000 | 74 | 30.6 | > 100000 | – | – | – | –
CCCCC1=NC2(CCCC2)C(=O)N1Cc1ccc(-c2cc(-c3ccc(C)cc3)ccc2-c2nn[nH]n2)cc1 [Example 122, 2-butyl-3-((4″-methyl-6′-(2H-tetrazol-5-yl)-[1,1′:3′,1″-terphenyl]-4-yl)methyl)-1,3-diazaspiro[4.4]non-1-en-4-one] | 94.3 | 17.5 | 30.8 | > 10000 | 16.1 | 33.8 | 35.4 | 31.6 | 5.5 | – | –
CCCCC1=NC2(CCCC2)C(=O)N1Cc1ccc(-c2cc(-c3ccc(C(=O)N(C)C)cc3)ccc2-c2nn[nH]n2)cc1 [Example 133] | 69.0 | 38.4 | > 10000 | > 10000 | 5.7 | 18.0 | > 100000 | – | – | – | –
CCCCC1=NC2(CCCC2)C(=O)N1Cc1ccc(-c2cc(-c3cc(C)ccn3)ccc2-c2nn[nH]n2)cc1 [Example 139] | 95.0 | 11.2 | 41.4 | 34.4 | 10.5 | 50.1 | 19.2 | 83.5 | 16.8 | 20.6 | –
CCCCC1=NC2(CCCC2)C(=O)N1Cc1ccc(-c2cc(-c3cc(OC)ccn3)ccc2-c2nn[nH]n2)cc1 [Example 141] | 88.6 | 10 | 40.4 | 13.3 | 13.5 | 31.5 | > 100000 | 58.9 | – | 14.9 | –
CCc1nc2c(C)cc(C)nc2n1Cc1ccc(-c2cc(-c3cccc(C)c3)ccc2-c2nnn[nH]2)nc1 [Example 175, 2-ethyl-5,7-dimethyl-3-((6-(3′-methyl-4-(1H-tetrazol-5-yl)biphenyl-3-yl)pyridin-3-yl)methyl)-3H-imidazo[4,5-b]pyridine] | 93.0 | 5.2 | – | 21.1 | 6 | 37.0 | 12.8 | – | 24.1 | 12.4 | 10.7
CCc1nc2c(C)cc(C)nc2n1Cc1ccc(-c2cc(-c3ccccc3)ccc2-c2nnn[nH]2)nc1 [Example 176, 3-((6-(4-(1H-tetrazol-5-yl)-[1,1′-biphenyl]-3-yl)pyridin-3-yl)methyl)-2-ethyl-5,7-dimethyl-3H-imidazo[4,5-b]pyridine] | 79.1 | 25.5 | – | > 100000 | 31.8 | 32.0 | 48.9 | – | 9.8 | – | 30.6
CCc1nc2c(C)cc(C)nc2n1Cc1ccc(-c2cc(-c3cccc(C)c3)ccc2-c2nnn[nH]2)cn1 [Example 177, 2-ethyl-5,7-dimethyl-3-((5-(3′-methyl-4-(1H-tetrazol-5-yl)biphenyl-3-yl)pyridin-2-yl)methyl)-3H-imidazo[4,5-b]pyridine] | 91.8 | 4 | – | 36.2 | 11.8 | 52.2 | 113 | – | 22.9 | 23.8 | 11.5
CCc1nc2c(C)cc(C)nc2n1Cc1ccc(-c2cc(-c3ccccc3O)ccc2-c2nnn[nH]2)cn1 [Example 178] | 89.3 | 4.8 | – | 25.6 | 7.1 | 75.6 | 21.5 | – | 20.8 | 19.6 | 19.4
